From patent publication US20220106296A1, “CYANOTRIAZOLE COMPOUNDS AND USES THEREOF” (Novartis AG, priority 2018, published 2022)

Experiments:
[1] = tested on: T. b. brucei Lister427 bloodstream form parasites; experiment: T. b. brucei growth inhibition assay (CellTiter-Glo, 48 hours); type: cell-based; conditions: Trypanosoma brucei
Summary of the method: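 1×10^4 bloodstream-form parasites/well in HMI-9 medium exposed to 10-point, 3-fold compound dilutions for 48 h at 37 °C, 5% CO2. Parasite number quantified as intracellular ATP by CellTiter-Glo luminescence, normalized to DMSO controls for IC50 calculation.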

[2] = tested on: intracellular T. cruzi amastigotes; experiment: T. cruzi amastigote growth inhibition assay (NIH 3T3 host cells, β-galactosidase readout); type: cell-based; conditions: Trypanosoma cruzi, NIH3T3, read-out: (c) T.c.* IC50
Method: NIH 3T3 fibroblast cells (ATCC) were maintained in RPMI-1640 medium (Life Technologies) supplemented with 10% heat-inactivated fetal bovine serum and 100 IU penicillin/100 μg/ml streptomycin at 37° C./5% CO2. T. cruzi Tulahuen parasites constitutively expressing E. coli β-galactosidase were maintained in tissue culture as an infection in NIH 3T3 fibroblast cells. Briefly, 2×10^7 T. cruzi trypomastigotes were used to infect 6×10^5 NIH 3T3 cells growing in T75 CELLSTAR tissue culture flasks and cultured at 37° C./5% CO2 until proliferating intracellular parasites lysed host 3T3 cells and were released into the culture medium (typically 6-7 days). During the infection, the tissue culture medium was changed every two days. Number of T. cruzi trypomastigotes present in 1 ml of medium was determined using a haemocytometer.
To determine compound potency on intracellular T. cruzi amastigotes, NIH 3T3 cells were re-suspended in phenol red-free RPMI-1640 medium containing 3% heat-inactivated fetal bovine serum and 100 IU penicillin/100 μg/ml streptomycin, seeded at 1,000 cells/well (40 μl) in white, clear bottom 384-well plates (Greiner Bio-One), and incubated overnight at 37° C./5% CO2. The following day, 100 nl of each compound in DMSO were transferred to individual plate wells by Echo 555 acoustic liquid handling system. After one hour incubation, 1×10^6 of tissue culture-derived T. cruzi trypomastigotes, in 10 μl of phenol red-free RPMI-1640 medium supplemented with 3% heat-inactivated fetal bovine serum and 100 IU penicillin/100 μg/ml streptomycin were added to each well. Plates were then incubated for 6 days at 37° C./5% CO2. Intracellular T. cruzi parasites were quantified by measuring the activity of parasite-expressed β-galactosidase. Ten microliters of a chromogenic β-galactosidase substrate solution (0.6 mM chlorophenol red-β-D-galactopyranoside/0.6% NP-40 in PBS; both reagents from Calbiochem) were added to each well and incubated for 2 h at room temperature. After incubation, absorption was measured at 570 nm on SpectraMax M2 plate reader (Molecular Devices). Measured absorbance values in wells with compounds were divided by the average absorbance value of the plate DMSO controls, and used for calculation of compound EC50 values as described above.

[3] = tested on: stage I mouse model, hemolymphatic (blood stream) form of human infection; experiment: Stage I mouse model of HAT; type: in vivo
From the text: (§1) Based on the favorable in vitro and in vivo pharmacological properties, selected cyanotraizole compounds were chosen for testing in stage I and stage II mice models. The stage I mouse model represents the hemolymphatic (blood stream) form of human infection.

[4] = tested on: stage II mouse model, CNS form of the disease; experiment: Stage II mouse model of HAT; type: in vivo
From the text: as §1

T.b. gambinese STIB930 = experiment: T.b. gambiense growth inhibition assay; type: cell-based; conditions: Trypanosoma brucei, read-out: (b) T.b.g* IC50
Method: Bloodstream form of T. b. brucei Lister427 strain was obtained from the Genomics Institute of the Novartis Research Foundation. This strain was used for carrying out growth inhibition and kill kinetics assays. T. b. gambiense STIB930 and T. b. rhodesiense STIB900 were obtained from Swiss TPH, were used for carrying out the growth inhibition assays. Bloodstream form of T. b. gambiense and T. b. rhodesiense were also grown in HMI-9 media, described above, but the media was supplemented by 5% human serum and 5% heat-inactivated FBS instead of 10% FBS. To determine compound growth inhibitory potency on T. b. brucei Lister427 bloodstream form parasites, 200 nL of 10-point, 3 fold serially diluted compounds in DMSO were transferred to the wells of white, solid bottom 384-well plates (Greiner Bio-One) by either Echo 555 acoustic liquid handling system or Mosquito. Then, 1×10^4 of T. b. brucei parasites in 40 μL of HMI-9 medium were added to each well, and the plates were incubated for 48 hours at 37° C. in 5% CO2 incubators. Parasite numbers in individual plate wells were determined through quantification of intracellular ATP amount. The CellTiter-Glo luminescent cell viability reagent (Promega) was added to plate wells, and ATP-dependent luminescence signal was measured on Tecan M1000 plate Reader after 30 min incubation. Luminescence values in wells with compounds were divided by the average luminescence value of the plate DMSO controls, and used for calculation of compound IC50 values. Similar assay was also used for determining IC50 against T.b. gambinese STIB930 and T. b. rhodesiense STIB900 strains, but the initial concentration of cells used was 3×10^4 parasites/ml.

[5] = tested on: Leishmania donovani axenic amastigote; experiment: Growth inhibition of Leishmania donovani axenic amastigote; type: cell-based; conditions: L. donovani growth inhibition, read-out: (d) L.d* IC50
Method: Leishmania donovani axenic amastigote parasites are grown at 37° C., 5% CO2 in media made of RPMI 1640, 4 mM L-glutamine, 20% heat inactivated FBS, 100 units/ml of penicillin and 100 μg/ml of streptomycin, 23 μM Folic Acid, 100 μM Adenosine, 22 mM D-glucose, 25 mM MES. The pH of media is adjusted to 5.5 at 37° C. using HCl. 20 μL of media is first dispensed into 384 well plates and 100 nL of the compounds of invention in DMSO are added to the plate wells. At the same time control compounds and DMSO are added to plates to serve as the positive and negative controls, respectively. 40 μL of parasite culture (9600 parasites) are then added to the plate wells. The plates are then placed into incubators. After 2 day incubation, 20 μL of Cell TiterGlo (Promega) is added to the plate wells. The luminescence signal of each well is measured using the Envision reader (Perkin Elmer). The percentage inhibition of 50%, EC50, is calculated for each of the compounds.

Compound | IC50 [1] [nM] | IC50 [2] [nM] | cure in stage I mouse model ([3]; 10 mg/kg QD) | cure in stage II mouse model ([4]; 10 mg/kg QD) | IC50 (T.b. gambinese STIB930) [nM] | IC50 [5] [nM] | cure in stage I mouse model ([3]; 10 mg/kg BID) | cure in stage II mouse model ([4]; 100 mg/kg QD) | cure in stage II mouse model ([4]; 15 mg/kg QD)
N#Cc1ncn(CC(=O)N2Cc3ccc(-c4cc(F)cnc4C(F)(F)F)cc3C2)n1 [Example 8, 1-(2-(5-(5-fluoro-2-(trifluoromethyl)pyridin-3-yl)isoindolin-2-yl)-2-oxoethyl)-1H-1,2,4-triazole-3-carbonitrile] | 100 to 1000 | 100 to 1000 | complete cure without relapse | complete cure without relapse | – | – | – | – | –
N#Cc1ncn(CC(=O)N2Cc3ccc(-c4ccc(F)cc4C(F)(F)F)cc3C2)n1 [Example 29, 1-(2-(5-(4-fluoro-2-(trifluoromethyl)phenyl)isoindolin-2-yl)-2-oxoethyl)-1H-1,2,4-triazole-3-carbonitrile] | < 100 | < 100 | – | – | 100 to 1000 | ≥ 1000 | complete cure without relapse | complete cure without relapse | –
N#Cc1ncn(CC(=O)N2Cc3ccc(-c4cc(F)c(F)cc4Cl)cc3C2)n1 [Example 30, 1-(2-(5-(2-chloro-4,5-difluorophenyl)isoindolin-2-yl)-2-oxoethyl)-1H-1,2,4-triazole-3-carbonitrile] | < 100 | < 100 | – | – | 100 to 1000 | ≥ 1000 | – | – | –
COc1ccc(-c2ccc3c(c2)CN(C(=O)Cn2cnc(C#N)n2)C3)c(C(F)(F)F)c1 [Example 31, 1-(2-(5-(4-methoxy-2-(trifluoromethyl)phenyl)isoindolin-2-yl)-2-oxoethyl)-1H-1,2,4-triazole-3-carbonitrile] | < 100 | < 100 | – | – | 100 to 1000 | ≥ 1000 | – | – | –
N#Cc1ncn(CC(=O)N2Cc3ccc(-c4ccccc4Cl)cc3C2)n1 [Example 33, 1-(2-(5-(2-chlorophenyl)isoindolin-2-yl)-2-oxoethyl)-1H-1,2,4-triazole-3-carbonitrile] | 100 to 1000 | < 100 | – | – | 100 to 1000 | ≥ 1000 | – | – | –
COc1ccc(-c2ccc3c(c2)CN(C(=O)Cn2cnc(C#N)n2)C3)c(Cl)c1 [Example 34, 1-(2-(5-(2-chloro-4-methoxyphenyl)isoindolin-2-yl)-2-oxoethyl)-1H-1,2,4-triazole-3-carbonitrile] | 100 to 1000 | < 100 | – | – | 100 to 1000 | ≥ 1000 | – | – | –
N#Cc1ncn(CC(=O)N2Cc3ccc(-c4ccc(F)cc4Cl)cc3C2)n1 [Example 37, 1-(2-(5-(2-chloro-4-fluorophenyl)isoindolin-2-yl)-2-oxoethyl)-1H-1,2,4-triazole-3-carbonitrile] | 100 to 1000 | < 100 | – | – | 100 to 1000 | – | – | – | –
N#Cc1ncn(CC(=O)N2Cc3ccc(-c4ccc(Cl)cc4Cl)cc3C2)n1 [Example 38, 1-(2-(5-(2,4-dichlorophenyl)isoindolin-2-yl)-2-oxoethyl)-1H-1,2,4-triazole-3-carbonitrile] | 100 to 1000 | < 100 | – | – | 100 to 1000 | ≥ 1000 | – | – | –
N#Cc1ccc(F)c(-c2ccc3c(c2)CN(C(=O)Cn2cnc(C#N)n2)C3)c1 [Example 41, 1-(2-(5-(5-cyano-2-fluorophenyl)isoindolin-2-yl)-2-oxoethyl)-1H-1,2,4-triazole-3-carbonitrile] | 100 to 1000 | < 100 | – | – | 100 to 1000 | ≥ 1000 | – | – | –
N#Cc1ncn(CC(=O)N2Cc3ccc(-c4cc(F)c(F)cc4F)cc3C2)n1 [Example 45, 1-(2-oxo-2-(5-(2,4,5-trifluorophenyl)isoindolin-2-yl)ethyl)-1H-1,2,4-triazole-3-carbonitrile] | 100 to 1000 | 100 to 1000 | – | – | 100 to 1000 | – | – | – | –
N#Cc1ncn(CC(=O)N2Cc3ccc(-c4cccnc4C(F)(F)F)cc3C2)n1 [Example 85, 1-(2-oxo-2-(5-(2-(trifluoromethyl)pyridin-3-yl)isoindolin-2-yl)ethyl)-1H-1,2,4-triazole-3-carbonitrile] | < 100 | < 100 | complete cure without relapse | – | < 100 | ≥ 1000 | – | – | complete cure without relapse
